# Experimental data reported in article PMC2585982 (Toxicology and applied pharmacology, 2008).
# Legend:
# P450 1A1/1A2 [1] = test: Western blot of liver microsomes, P450 1A1/1A2 protein expression; settings: C57BL/6 mice, 100 mg/kg p.o. 3 days
# P450 3A11 [2] = test: Liver microsomal P450 3A activity; type: in vivo, mice; settings: for Increase in P450 3A activity (testosterone), liver microsomes: C57BL/6 mice, 100 mg/kg p.o. 3 days, vs corn oil
# GST (DCNB, GST μ) = test: Liver cytosolic GST activity, DCNB as substrate, after oral dosing of mice; type: in vivo; settings: C57BL/6 mice, 100 mg/kg p.o. 3 days, vs corn oil
# P450 3A11 [3] = test: Western blot of liver microsomes, P450 3A11 protein expression; settings: C57BL/6 mice, 100 mg/kg p.o. 3 days
# P450 2B10 [4] = test: Western blot of liver microsomes, P450 2B10 protein expression; settings: C57BL/6 mice, 100 mg/kg p.o. 3 days
# P450s 2B9/10 [5] = test: Liver microsomal P450 2B activity; type: in vivo, mice; settings: mouse, in vivo
# NQO = test: Liver cytosolic NQO activity; type: in vivo, mice; settings: vs corn oil; for Increase in NQO activity, liver cytosol: C57BL/6 mice, 100 mg/kg p.o. 3 days
# [6] = tested on: GST (cumene hydroperoxide); test: Liver GST activity, cumene hydroperoxide as substrate, after oral dosing of mice; type: in vivo; settings: female SENCAR mice, even at the highest doses, data not shown
# P450 2B10 [7] = settings: mouse, in vivo
# GSTα = test: Western blot of liver cytosol, GSTα protein expression; type: in vivo; settings: SENCAR mice, 35, 70, 150 mg/kg p.o., particularly at the highest doses
# GSTπ = test: Western blot of liver cytosol, GSTπ protein expression; type: in vivo; settings: SENCAR mice, 35, 70, 150 mg/kg p.o.
# P450s 2B9/10 [8] = settings: mouse, in vivo; cited from earlier work
# P450 2B = settings: cited from earlier work
# P450 1A1/1A2 [9] = settings: mouse, in vivo
# P450s 1A1/2 = test: Liver microsomal P450 1A activity; type: in vivo, mice; settings: mouse, in vivo
# GSTμ = test: Western blot of liver cytosol, GSTμ protein expression; type: in vivo, mice; settings: SENCAR mice, 35, 70, 150 mg/kg p.o.
structure (smiles),measurement,setting,value
O=c1ccc2ccc3occc3c2o1 [angelicin],P450 1A1/1A2 protein expression (western blot densitometry),P450 1A1/1A2 [1],increased
same,"Increase in P450 3A activity (testosterone), liver microsomes",P450 3A11 [2],not statistically significant
same,"GST activity using DCNB as a substrate, liver cytosol","GST (DCNB, GST μ)",highest increase
CC(C)=CCC/C(C)=C/COc1ccc2ccc(=O)oc2c1 [auraptene],P450 1A1/1A2 protein expression (western blot densitometry),P450 1A1/1A2 [1],did not have any apparent effect
same,P450 3A11 protein expression (western blot densitometry),P450 3A11 [3],did not have any apparent effect
same,P450 2B10 protein expression (western blot densitometry),P450 2B10 [4],did not have any apparent effect
CC(C)=CCC/C(C)=C/COc1c2ccoc2cc2oc(=O)ccc12 [bergamottin],P450 1A1/1A2 protein expression (western blot densitometry),P450 1A1/1A2 [1],increased
same,"Increase in P450 2B activity (pentoxyresorufin), liver microsomes","P450s 2B9/10 [5]; po, 100 mg/kg",~ 5 fold
same,P450 3A11 protein expression (western blot densitometry),P450 3A11 [3],increased
same,"Increase in NQO activity, liver cytosol",NQO,2–3 fold
same,"Increase in P450 3A activity (testosterone), liver microsomes",P450 3A11 [2],3–4 fold
same,P450 2B10 protein expression (western blot densitometry),P450 2B10 [4],increased
"O=c1ccc2ccccc2o1 [coumarin, 1,2-benzopyrone]",P450 1A1/1A2 protein expression (western blot densitometry),P450 1A1/1A2 [1],did not have any apparent effect
same,P450 3A11 protein expression (western blot densitometry),P450 3A11 [3],did not have any apparent effect
same,"Increase in NQO activity, liver cytosol",NQO,2–3 fold
same,P450 2B10 protein expression (western blot densitometry),P450 2B10 [4],did not have any apparent effect
same,"GST activity using DCNB as a substrate, liver cytosol","GST (DCNB, GST μ)",highest increase
CC(C)=CCOc1c2occc2cc2ccc(=O)oc12 [imperatorin],GST activity using cumene hydroperoxide as a substrate,[6],no differences
same,"Increase in P450 2B9/10 enzyme activity, dose-response study",P450s 2B9/10 [5],~ 100 fold
same,"P450 2B activity, liver microsomes, dose-response study",P450s 2B9/10 [5],significant increases
same,"Increase in P450 2B9/10 protein expression (optical density), dose-response study",P450 2B10 [7],1.5–2 fold
same,"P450 2B10 protein levels, dose-response study",P450 2B10 [7],significantly elevated
same,"Hepatic expression of GST α protein, dose-response study",GSTα,greatly increased
same,"Hepatic expression of GST π protein, dose-response study",GSTπ,modest increase
same,Hepatic P450 2B9/10 activity at 1 h after the final dose,P450s 2B9/10 [8],no elevation
same,Increase in hepatic P450 2B9/10 activity at 24 h after the final dose,P450s 2B9/10 [8],100 fold
same,Potency at blocking P450 2B activity relative to isopimpinellin,P450 2B,10–100 times
same,"Liver cytosolic NQO activity, dose-response study","NQO; female SENCAR mice, 35, 70, 150 mg/kg p.o. 4 days",increased at all doses
same,"P450 3A activity, liver microsomes, dose-response study","P450 3A11 [2]; mouse, in vivo",increased
same,"P450 1A1/1A2 protein levels, dose-response study",P450 1A1/1A2 [9],elevated
same,"P450 1 activity, liver microsomes, dose-response study",P450s 1A1/2,significant increases
same,"Hepatic expression of GST μ protein, dose-response study",GSTμ,no increase
"COc1cc(OC)c2ccc(=O)oc2c1 [limettin, 5,7-dimethoxycoumarin]",P450 1A1/1A2 protein expression (western blot densitometry),P450 1A1/1A2 [1],did not have any apparent effect
same,P450 3A11 protein expression (western blot densitometry),P450 3A11 [3],did not have any apparent effect
same,P450 2B10 protein expression (western blot densitometry),P450 2B10 [4],did not have any apparent effect
